Assay results from patent publication EP4273147A1, “SUBSTITUTED SPIROLACTAMS, SALTS THEREOF AND THEIR USE AS HERBICIDALLY ACTIVE SUBSTANCES” (Bayer Aktiengesellschaft, priority 2022, dated 2023).

Columns and labels:
[1] = system: ORYZA; assay: Post-emergence effects on crop plants (Table F3); assay type: in vivo, Oryza sativa; conditions: application rate 320 g/ha, crop plant ORYZA
Excerpt: (§1) 2 to 3 weeks after sowing, the test plants were sprayed in the single-leaf stage.

[2] = system: GLXMA; assay: Pre-emergence effects on crop plants (Table D4); assay type: in vivo, Glycine max; conditions: crop plant; application rate 80 g/ha; visual grading after ca. 3 weeks
[3] = system: SETVI; assay: Herbicidal pre-emergence action, section C (Table C10); assay type: in vivo, Setaria viridis; conditions: application rate 80 g/ha; visual grading after ca. 3 weeks
[4] = system: ECHCG; assay: Herbicidal pre-emergence action (Table A2); assay type: in vivo, Echinochloa crus-galli; conditions: application rate 320 g/ha; visual grading after ca. 3 weeks
Outline: (§2)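 Sandy loam filled the pots; weed seeds went in as paired sowings of one grass-type and one broadleaf species, then were covered with soil.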

[5] = system: KCHSC; assay: Herbicidal pre-emergence action (Table A10); assay type: in vivo, Kochia scoparia; conditions: application rate 320 g/ha; visual grading after ca. 3 weeks
Outline: as §2

[6] = system: AMARE; assay: Herbicidal pre-emergence action (Table A8); assay type: in vivo, Amaranthus retroflexus; conditions: application rate 320 g/ha; visual grading after ca. 3 weeks vs untreated controls (100% = plants have died off, 0% = as control plants)
Outline: as §2

[7] = system: LOLRI; assay: Herbicidal pre-emergence action (Table A3); assay type: in vivo, Lolium rigidum; conditions: application rate 1280 g/ha; visual grading after ca. 3 weeks
Outline: as §2

[8] = system: GLXMA; assay: Post-emergence effects on crop plants (Table F4); assay type: in vivo, Glycine max; conditions: application rate 320 g/ha, crop plant GLXMA
Excerpt: as §1

[9] = system: POAAN; assay: Herbicidal pre-emergence action (Table A7); assay type: in vivo, Poa annua; conditions: application rate 1280 g/ha; visual grading after ca. 3 weeks
Outline: as §2

[10] = system: LOLRI; assay: Herbicidal pre-emergence action, section C (Table C7); assay type: in vivo, Lolium rigidum; conditions: application rate 80 g/ha; visual grading after ca. 3 weeks
[11] = system: ALOMY; assay: Herbicidal pre-emergence action (Table A9); assay type: in vivo, Alopecurus myosuroides; conditions: application rate 1280 g/ha; visual grading after ca. 3 weeks
Outline: as §2

[12] = system: VERPE; assay: Herbicidal pre-emergence action (Table A11); assay type: in vivo, Veronica persica; conditions: application rate 1280 g/ha; visual grading after ca. 3 weeks
Outline: as §2

[13] = system: MATIN; assay: Herbicidal pre-emergence action (Table A4); assay type: in vivo, Matricaria inodora; conditions: application rate 320 g/ha; visual grading after ca. 3 weeks
Outline: as §2

[14] = system: BRSNW; assay: Post-emergence effects on crop plants (Table F5); assay type: in vivo, Brassica napus; conditions: application rate 320 g/ha, crop plant BRSNW
Excerpt: as §1

[15] = system: ECHCG; assay: Herbicidal post-emergence action, section E (Table E5); assay type: in vivo, Echinochloa crus-galli; conditions: application rate 320 g/ha; assessed visually after ca. 3 weeks
Excerpt: as §1

[16] = system: ZEAMX; assay: Post-emergence effects on crop plants (Table F1); assay type: in vivo, Zea mays; conditions: application rate 320 g/ha, crop plant ZEAMX
Excerpt: as §1

[17] = system: MATIN; assay: Herbicidal pre-emergence action, section C (Table C8); assay type: in vivo, Matricaria inodora; conditions: application rate 320 g/ha; visual grading after ca. 3 weeks
Excerpt: (§5) Seeds of mono- and dicotyledonous weed plants and crop plants were sown, in plastic or organic planting pots, in sandy loam and covered with soil. The compounds according to the invention, formulated in the form of wettable powders (WP) or as emulsifiable concentrates (EC), were applied to the surface of the covering soil as aqueous suspension or emulsion, with the addition of 0.5% of an additive, at an application rate of 600 1 of water/ha (converted). Following treatment, the pots were placed in a greenhouse and kept under optimum growth conditions for the test plants.

[18] = system: ALOMY; assay: Herbicidal post-emergence action, section E (Table E2); assay type: in vivo, Alopecurus myosuroides; conditions: application rate 320 g/ha; assessed visually after ca. 3 weeks
Excerpt: as §1

[19] = system: STEME; assay: Herbicidal post-emergence action (Table B9); assay type: in vivo, Stellaria media; conditions: application rate 1280 g/ha
Procedure: (§3) Seeds of mono- and dicotyledonous weed plants were placed in plastic pots in sandy loam soil (doubly sown with in each case one species of mono- or dicotyledonous weed plants per pot), covered with soil and cultivated in a greenhouse under controlled growth conditions. 2 to 3 weeks after sowing, the test plants were treated at the one-leaf stage. […] After the test plants had been kept in the greenhouse under optimum growth conditions for about 3 weeks, the activity of the preparations was rated visually in comparison to untreated controls. For example, 100% activity = the plants have died, 0% activity = like control plants.

[20] = system: AMARE; assay: Herbicidal pre-emergence action, section C (Table C3); assay type: in vivo, Amaranthus retroflexus; conditions: application rate 320 g/ha; visual grading after ca. 3 weeks
Excerpt: as §5

[21] = system: ORYZA; assay: Pre-emergence effects on crop plants (Table D3); conditions: crop plant; application rate 80 g/ha; visual grading after ca. 3 weeks
[22] = system: STEME; assay: Herbicidal pre-emergence action (Table A6); assay type: in vivo, Stellaria media; conditions: application rate 320 g/ha; visual grading after ca. 3 weeks
Outline: as §2

[23] = system: BRSNW; assay: Pre-emergence effects on crop plants (Table D5); assay type: in vivo, Brassica napus; conditions: crop plant; application rate 80 g/ha; visual grading after ca. 3 weeks
[24] = system: ABUTH; assay: Herbicidal pre-emergence action (Table A1); assay type: in vivo, Abutilon theophrasti; conditions: application rate 1280 g/ha; visual grading after ca. 3 weeks vs untreated controls (100% = plants have died off, 0% = as control plants)
Outline: as §2

[25] = system: ALOMY; assay: Herbicidal pre-emergence action, section C (Table C2); assay type: in vivo, Alopecurus myosuroides; conditions: application rate 320 g/ha; visual grading after ca. 3 weeks
[26] = system: LOLRI; assay: Herbicidal post-emergence action (Table B5); assay type: in vivo, Lolium rigidum; conditions: application rate 1280 g/ha; rated visually after about 3 weeks
Outline: (§4)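 Sow weeds in sandy loam pots, one species each; grow in greenhouse 2–3 weeks to one-leaf stage; treat; hold ~3 weeks under optimum conditions; rate damage visually vs untreated (0–100%).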

[27] = system: POAAN; assay: Herbicidal post-emergence action (Table B7); assay type: in vivo, Poa annua; conditions: application rate 320 g/ha
Outline: as §4

[28] = system: AMARE; assay: Herbicidal post-emergence action (Table B11); assay type: in vivo, Amaranthus retroflexus; conditions: application rate 1280 g/ha
Outline: as §4

[29] = system: ECHCG; assay: Herbicidal post-emergence action (Table B3); assay type: in vivo, Echinochloa crus-galli; conditions: application rate 1280 g/ha; rated visually after about 3 weeks
Outline: as §4

[30] = system: SETVI; assay: Herbicidal post-emergence action, section E (Table E8); assay type: in vivo, Setaria viridis; conditions: application rate 320 g/ha; assessed visually after ca. 3 weeks
Excerpt: as §1

[31] = system: ECHCG; assay: Herbicidal pre-emergence action, section C (Table C6); assay type: in vivo, Echinochloa crus-galli; conditions: application rate 320 g/ha; visual grading after ca. 3 weeks
[32] = system: KCHSC; assay: Herbicidal post-emergence action (Table B4); assay type: in vivo, Kochia scoparia; conditions: application rate 1280 g/ha; rated visually after about 3 weeks
Procedure: as §3

[33] = system: SETVI; assay: Herbicidal pre-emergence action (Table A5); assay type: in vivo, Setaria viridis; conditions: application rate 320 g/ha; visual grading after ca. 3 weeks
Outline: as §2

[34] = system: MATIN; assay: Herbicidal post-emergence action (Table B6); assay type: in vivo, Matricaria inodora; conditions: application rate 320 g/ha; rated visually after about 3 weeks
Outline: as §4

With `O=C1N(Cc2cccs2)CCCC12CCCN(Cc1c(F)cccc1F)C2=O` (racemic) [I-011] the “post-emergence activity against ORYZA” value [1] was 20%, the “pre-emergence activity against GLXMA” value [2] was 20% and the “pre-emergence activity against SETVI” value [3] was 100%. The “pre-emergence activity against ECHCG” value [4] was 100%, the “pre-emergence activity against KCHSC” value [5] was 90% and the “pre-emergence activity against AMARE” value [6] was 90%. For the same molecule, the “pre-emergence activity against LOLRI” value [7] was 100%, the “post-emergence activity against GLXMA” value [8] was 20% and the “pre-emergence activity against POAAN” value [9] was 100%. The “pre-emergence activity against LOLRI” value [10] was 80%, the “pre-emergence activity against ALOMY” value [11] was 90% and the “pre-emergence activity against VERPE” value [12] was 90%. For the same molecule, the “pre-emergence activity against MATIN” value [13] was 90%, the “post-emergence activity against BRSNW” value [14] was 0% and the “post-emergence activity against ECHCG” value [15] was 80%. The “post-emergence activity against ZEAMX” value [16] was 10%, the “pre-emergence activity against MATIN” value [17] was 80% and the “post-emergence activity against ALOMY” value [18] was 80%. The “post-emergence activity against STEME” value [19] was 90%, the “pre-emergence activity against AMARE” value [20] was 90% and the “pre-emergence activity against ORYZA” value [21] was 10%. For the same molecule, the “pre-emergence activity against STEME” value [22] was 90%, the “pre-emergence activity against BRSNW” value [23] was 20% and the “pre-emergence activity against ABUTH” value [24] was 90%. The “pre-emergence activity against ALOMY” value [25] was 90%, the “post-emergence activity against LOLRI” value [26] was 90% and the “post-emergence activity against POAAN” value [27] was 100%. For the same molecule, the “post-emergence activity against AMARE” value [28] was 90%, the “post-emergence activity against ECHCG” value [29] was 90% and the “post-emergence activity against SETVI” value [30] was 80%. The “pre-emergence activity against ECHCG” value [31] was 90%, the “post-emergence activity against KCHSC” value [32] was 90% and the “pre-emergence activity against SETVI” value [33] was 100%. For the same molecule, the “post-emergence activity against MATIN” value [34] was 90%.
